# Reference: US20240316164A1, “ENHANCED EXPRESSION OF AN AROMATIC AMINO ACID DECARBOXYLASE (AADC) IN THE SUBSTANTIA NIGRA FOR THE TREATMENT OF PARKINSON'S DISEASE” (Northwestern University, priority 2021, published 2024)
# “Also recorded” adds a separate entry of the source.
# Assays:
# [1] = test system: cNdufs2−/− mice; experiment: Y maze associative learning test; assay type: in vivo, mouse; conditions: systemic levodopa 6 mg/kg, P30
# Source text: (§1) FIG. 4. cNdufs2^−/− mice manifest a progressive, levodopa-responsive Parkinsonism. a, Schematic diagram of the experimental protocol for Y maze test. […] Local electrical stimulation (350 μA, 2 ms) was used to evoke release. […] By P30, cNdufs2^−/− mice took longer (N=10-13 per group). e, Open-field traces in wildtype and cNdufs2^−/− mice at P30 and P100. f, Number of pauses during open field test in wildtype and cNdufs2^−/− mice. […] N=12-27per group. h-m, Gait analysis procedure and measurement schematics. h, Pictures of wildtype and cNdufs2^−/− mice footprints with representations of measurements of RF (Right Fore). RH (Right Hind). […] Box plots represent stride length in right hind paw at P100 (N=7 per group). m, Boxplots indicate swing duration in right hind paw. […] Kruskal-Wallis test: (b), (d), (f) and (g). ***P<0.001. 2-way ANOVA followed by Tukey's post hoc test (c). *P<0.05; **P<0.01; 1-way ANOVA followed by Tukey's post hoc test (i), (j), (l) and (m). Data are presented as box-and-whisker plots depicting median, quartiles, and range (b), (c), (i), (j), (l) and (m) or median and range (shaded area); (d), (f) and (g).
# Unlike conventional PD models in which DA is depleted rapidly throughout the basal ganglia, the staging of pathology in cNdufs2^−/− mice allowed an assessment of how regional deficits in DA release are coupled to behavior. […]
# [2] = test system: cNdufs2−/− mice; experiment: Adhesive removal test; assay type: in vivo, mouse; conditions: regardless of age
# Source text: as §1
# By P40, open-field, exploratory behavior of cNdufs2″ mice began to be interrupted by brief pauses, although the total distance traveled in the testing period was normal (FIGS. 4e-g). […]
# [3] = test system: cNdufs2−/− mice; experiment: Open field test; assay type: in vivo, mouse
# [4] = test system: cNdufs2−/− mice; experiment: Rearing test; assay type: in vivo, mouse; conditions: levodopa 3 mg/kg, P20-P120
# Source text: (§2) FIG. 21. Behavioral phenotypes in cNdufs2^−/− mice. (a) Rearing test performance. b. […] Number of rearings begin to be impaired at P40. […] At P60, cNdufs2^−/− mice show difficulty transitioning between rearing and landing, spending much more time ‘stuck’ in an elevated posture. […] P60 and P100. […] P60 and P100. […] P60 and P100. […] P60 and P100. […] 1. […] P60 and P100. […] P60 and P100. […] P60 and P100. […] Kruskal-Wallis test: (b), and (c). *P<0.05; **P<0.01; 1-way ANOVA followed by Tukey's post hoc test: (h-o). Data are presented as median and range (shaded area).
# By P40, open-field, exploratory behavior of cNdufs2″ mice began to be interrupted by brief pauses, although the total distance traveled in the testing period was normal (FIGS. 4e-g). Later, open-field behavior of cNdufs2^−/− mice became progressively more impaired and total distance traveled began to fall (FIG. 4g). […] Another common exploratory behavior of mice involves rearing. When placed in a tall glass cylinder, mice rear, land and rear again in a different part of the cylinder; in a 3-minute period, mice typically rear and land 15-20 times. At P30, rearing behavior of cNdufs2^−/− mice was normal, but by P60 cNdufs2^−/− mice appeared to have difficulty transitioning between rearing and landing, spending much more time ‘stuck’ in an elevated posture. […]
# [5] = test system: cNdufs2−/− mice; experiment: Gait analysis on treadmill; assay type: in vivo, mouse
# Source text: as §1, §2
# However, by P100, cNdufs2^−/− mice had splayed hindlimbs, abnormal paw placement and alterations in stride when forced to ambulate on the treadmill (FIG. 4h-m, FIG. 21h-o). […] Because cNdufs2^−/− mice manifest a clear, levodopa-responsive Parkinsonism that is attributable to MCI dysfunction, they are referred to as MCI-Park mice.
# [6] = test system: SN dopaminergic neurons; experiment: Cytosolic ATP/ADP ratio with PercevalHR in ex vivo brain slice; assay type: cell-based, mouse; conditions: wildtype dopaminergic neurons, inhibition of mitochondrial complex V
# Source text: FIG. 1. Loss of Ndufs2 function triggers mitochondrial and genomic adaptations in SN DA Neurons. a, Schematic of a coronal section of the midbrain highlighting the sampled region of SNc (orange). b, Meta-analysis of RNAseq data obtained by Cre-dependent RiboTag mRNA precipitation from P40 wildtype mice. […] Scale bar: 10 μm. e, Representative TMRM fluorescence time series after the application of carboxyatractyloside, the adenine nucleotide transporter inhibitor (iANT). f, Box plots of TMRM after blocking ANT with carboxyatractyloside and depolarizing mitochondria with FCCP (wildtype, P40 n=8 (1 per section), 6 mice; cNdufs2^−/−, P20 n=4 (1 per section), 3 mice; P40 n=5 (1 per section), 4 mice)). g, Cartoon representing the activity of the ETC and ANT following Ndufs2 deletion. h, Electron micrographs of SN DA neurons. The nucleus and the mitochondria are highlighted in green and red, respectively. […] The percentage of abnormal mitochondria was calculated as the ration between the area occupied by abnormal mitochondria over the total area occupied by mitochondria for each cell. […] Scale bar: 15 μm. p, Representative time-lapse measurements of Perceval-HR fluorescence ratio. […]
# [7] = levodopa 6 mg/kg, P30, P60 and P100
Compound,"associative learning (memory) task, percentage of correct choices [1]",adhesive removal speed [2],"number of pauses during open field test ([3]; cNdufs2−/− mice, levodopa 3 mg/kg)","open-field performance (pauses, total distance traveled) ([3]; cNdufs2−/− mice, levodopa treatment)","open-field ambulation ([3]; control MCI-Park mice without AADC, low systemic levodopa dose 1.5 mg/kg, ~P100, 1.5 mg/kg)",number of rearings in a 3-minute period [4],rearing time [4],"gait deficits (splayed hindlimbs, abnormal paw placement, alterations in stride) ([5]; P100)",swing duration in right hind paw ([5]; levodopa 6 mg/kg),"brake duration in right hind paw [5, 7]","propulsion time in right hind paw [5, 7]","step sequence in right hind paw [5, 7]","stride frequency in right hind paw [5, 7]","hind limb stance width ([5]; levodopa 6 mg/kg, P100)","paw area in right hind paw ([5]; levodopa 6 mg/kg, P100)","stance duration in right hind paw ([5]; levodopa 6 mg/kg, P100)",cytosolic ATP/ADP ratio (ATP levels) [6]
N[C@@H](Cc1ccc(O)c(O)c1)C(=O)O [levodopa],restored,improved adhesive removal speed regardless of age,rescued this deficit,improved performance in this task,had no discernible effect,did not rescue this deficit,did not lessen this deficit; also recorded: did not rescue this deficit,"ameliorated some, but not all of these deficits",not rescued,did not rescue this phenotype,did not rescue this phenotype,did not rescue this phenotype,did not rescue this phenotype,rescued this phenotype,rescued this phenotype at P100,rescued this phenotype at P100,–
CC[C@H]1/C=C/C=C/C[C@@H](C)[C@H](O)[C@@](C)(O)C(=O)[C@@H](C)[C@H](O)[C@@H](C)C(=O)[C@@H](C)[C@H](O)[C@@H](C)/C=C/C(=O)O[C@@H]2[C@H](C)[C@H](CC1)O[C@]1(CC[C@H](C)[C@H](C[C@@H](C)O)O1)[C@H]2C [oligomycin],–,–,–,–,–,–,–,–,–,–,–,–,–,–,–,–,caused a precipitous drop in ATP levels
